Experimental data taken from patent publication US10189854B2, “Substituted pyrimidine compounds” (Grünenthal GmbH, priority 2014, dated 2019).

Biological target: human PDE4B1 (Homo sapiens (Human), UniProt Q07343)
Experiment: TR-FRET assay using the LANCE Ultra cAMP kit to determine the activity of hPDE4B1
Assay type: biochemical
Settings: IC50 inhibition of PDE4B, mean
Outline: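 Recombinant human PDE4B1 (Sf9-expressed, 0.96 U) incubated with compound and 500 nM cAMP in 50 mM Tris-HCl, 50 mM MgCl2, 5 mM DTT, pH 8.5, 30 min at room temperature. Residual cAMP read by TR-FRET (665/620 nm ratio) after IBMX stop. IC50 from ten-concentration curves as % inhibition of control.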

Chain of human PDE4B1 (Q07343 whole entry): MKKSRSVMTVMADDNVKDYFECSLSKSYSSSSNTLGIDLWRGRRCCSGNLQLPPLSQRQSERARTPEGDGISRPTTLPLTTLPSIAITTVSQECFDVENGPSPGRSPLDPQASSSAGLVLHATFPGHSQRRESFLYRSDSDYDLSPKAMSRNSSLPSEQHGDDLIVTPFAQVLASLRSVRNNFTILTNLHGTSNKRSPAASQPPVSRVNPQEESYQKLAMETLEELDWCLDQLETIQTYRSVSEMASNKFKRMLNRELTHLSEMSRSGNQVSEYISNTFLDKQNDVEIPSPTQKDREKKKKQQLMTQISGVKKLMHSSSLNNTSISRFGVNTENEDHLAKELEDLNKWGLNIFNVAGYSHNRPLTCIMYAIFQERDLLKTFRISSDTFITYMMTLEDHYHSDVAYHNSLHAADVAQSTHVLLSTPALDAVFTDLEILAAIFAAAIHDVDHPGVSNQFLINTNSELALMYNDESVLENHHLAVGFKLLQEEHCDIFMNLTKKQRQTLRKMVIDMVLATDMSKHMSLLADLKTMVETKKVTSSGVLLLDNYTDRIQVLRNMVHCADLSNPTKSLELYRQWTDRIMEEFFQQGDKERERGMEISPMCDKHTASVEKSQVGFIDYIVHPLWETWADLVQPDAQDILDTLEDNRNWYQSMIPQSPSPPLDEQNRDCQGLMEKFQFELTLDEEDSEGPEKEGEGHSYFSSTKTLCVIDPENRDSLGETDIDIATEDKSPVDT

Compound	IC50
C[C@@H](O)CN1CCN(C(=O)c2ccc3c(c2)N(c2ncc(-c4ccccc4F)cn2)CC32CC2)CC1 [Compound 239, [1-[5-(2-Fluorophenyl)-pyrimidin-2-yl]-spiro[1,2-dihydro-indole-3,1′-cyclopropane]-6-yl]-[4-[(2R)-2-hydroxy-propyl]-piperazin-1-yl]-methanone]	< 0.1 µM
Cc1cccc(-c2cnc(N3CC4(CC4)c4ccc(C(=O)N(C)C)cc43)nc2)n1 [Compound 303, N,N-Dimethyl-1-[5-(6-methyl-pyridin-2-yl)-pyrimidin-2-yl]-spiro[1,2-dihydro-indole-3,1′-cyclopropane]-6-carboxylic acid amide]	< 0.1 µM
CN(CCO)C(=O)c1ccc2c(c1)N(c1ncc(-c3cccc(Cl)c3)cn1)CC21CC1 [Compound 273, 1-[5-(3-Chlorophenyl)-pyrimidin-2-yl]-N-(2-hydroxy-ethyl)-N-methyl-spiro[1,2-dihydro-indole-3,1′-cyclopropane]-6-carboxylic acid amide]	< 0.1 µM
COc1ccnc(-c2cnc(N3CC4(CC4)c4ccc(C(=O)N5CC[C@@H](N)C5)cc43)nc2)c1 [Compound 330, [(3R)-3-Amino-pyrrolidin-1-yl]-[1-[5-(4-methoxy-pyridin-2-yl)-pyrimidin-2-yl]-spiro[1,2-dihydro-indole-3,1′-cyclopropane]-6-yl]-methanone]	< 0.1 µM
CN(CCO)C(=O)c1ccc2c(c1)N(c1ncc(-c3cccc(F)c3F)cn1)CC21CC1 [Compound 225, 1-[5-(2,3-Difluoro-phenyl)-pyrimidin-2-yl]-N-(2-hydroxy-ethyl)-N-methyl-spiro[1,2-dihydro-indole-3,1′-cyclopropane]-6-carboxylic acid amide]	< 0.1 µM
O=C(c1ccc2c(c1)N(c1ncc(-c3ccccn3)cn1)CC21CC1)N1C[C@@H]2C[C@H]1CN2 [Compound 304, [(1S,4S)-2,5-Diazabicyclo[2.2.1]heptan-2-yl]-[1-(5-pyridin-2-yl-pyrimidin-2-yl)-spiro[1,2-dihydro-indole-3,1′-cyclopropane]-6-yl]-methanone]	< 0.1 µM
CN(CCO)C(=O)c1ccc2c(c1)N(c1ncc(-c3cc(N(C)C)ccn3)cn1)CC21CC1 [Compound 272, 1-[5-(4-Dimethylamino-pyridin-2-yl)-pyrimidin-2-yl]-N-(2-hydroxy-ethyl)-N-methyl-spiro[1,2-dihydro-indole-3,1′-cyclopropane]-6-carboxylic acid amide]	< 0.1 µM
CC(CO)N(C)C(=O)c1ccc2c(c1)N(c1ncc(-c3ccccc3F)cn1)CC21CC1 (stereo not drawn) [Compound 285, 1-[5-(2-Fluorophenyl)-pyrimidin-2-yl]-N-(2-hydroxy-1-methyl-ethyl)-N-methyl-spiro[1,2-dihydro-indole-3,1′-cyclopropane]-6-carboxylic acid amide]	< 0.1 µM
Cc1ccnc(-c2cnc(N3CC4(CC4)c4ccc(C(=O)N5CC[C@@H](N)C5)cc43)nc2)c1 [Compound 334, [(3R)-3-Amino-pyrrolidin-1-yl]-[1-[5-(4-methyl-pyridin-2-yl)-pyrimidin-2-yl]-spiro[1,2-dihydro-indole-3,1′-cyclopropane]-6-yl]-methanone]	< 0.1 µM

The remaining lines, values ahead:

IC50	Compound
< 0.1 µM	O=C(c1ccc2c(c1)N(c1ncc(-c3cc(N4CCCC4)ccn3)cn1)CC21CC1)N1CCOCC1 [Compound 291, Morpholin-4-yl-[1-[5-(4-pyrrolidin1--yl-pyridin-2-yl)-pyrimidin-2-yl]-spiro[1,2-dihydro-indole-3,1′-cyclopropane]-6-yl]-methanone]
< 0.1 µM	Cc1ccnc(-c2cnc(N3CC4(CC4)c4ccc(C(=O)N5CCNC(=O)C5)cc43)nc2)c1 [Compound 222, 4-[1-[5-(4-Methyl-pyridin-2-yl)-pyrimidin-2-yl]-spiro[1,2-dihydro-indole-3,1′-cyclopropane]-6-carbonyl]-piperazin-2-one]
< 0.1 µM	Cc1cccc(-c2cnc(N3CC4(CC4)c4ccc(C(=O)N(C)CC(N)=O)cc43)nc2)n1 [Compound 307, N-(Carbamoyl-methyl)-N-methyl-1-[5-(6-methyl-pyridin-2-yl)-pyrimidin-2-yl]-spiro[1,2-dihydro-indole-3,1′-cyclopropane]-6-carboxylic acid amide]
< 0.1 µM	CN(CCO)C(=O)c1ccc2c(c1)N(c1ncc(-c3cc(C(C)(C)O)ccn3)cn1)CC21CC1 [Compound 314, N-(2-Hydroxy-ethyl)-1-[5-[4-(1-hydroxy-1-methyl-ethyl)-pyridin-2-yl]-pyrimidin-2-yl]-N-methyl-spiro[1,2-dihydro-indole-3,1′-cyclopropane]-6-carboxylic acid amide]
< 0.1 µM	CN(CCO)C(=O)c1ccc2c(c1)N(c1ncc(-c3cccc(C[S+](C)[O-])c3)cn1)CC21CC1 (stereo not drawn) [Compound 342, N-(2-Hydroxy-ethyl)-N-methyl-1-[5-[3-[(methylsulfinyl)-methyl]-phenyl]-pyrimidin-2-yl]-spiro[1,2-dihydro-indole-3,1′-cyclopropane]-6-carboxylic acid amide]
< 0.1 µM	Cc1ccnc(-c2cnc(N3CC4(CC4)c4ccc(C(=O)N(C)C)cc43)nc2)c1 [Compound 299, N,N-Dimethyl-1-[5-(4-methyl-pyridin-2-yl)-pyrimidin-2-yl]-spiro[1,2-dihydro-indole-3,1′-cyclopropane]-6-carboxylic acid amide]
< 0.1 µM	CC[S+]([O-])c1cccc(-c2cnc(N3CC4(CC4)c4ccc(C(=O)N(C)CCO)cc43)nc2)c1 (stereo not drawn) [Compound 341, 1-[5-[3-(Ethylsulfinyl)-phenyl]-pyrimidin-2-yl]-N-(2-hydroxy-ethyl)-N-methyl-spiro[1,2-dihydro-indole-3,1′-cyclopropane]-6-carboxylic acid amide]
< 0.1 µM	Cc1cc(C)nc(-c2cnc(N3CC4(CC4)c4ccc(C(=O)N(C)CCO)cc43)nc2)c1 [Compound 260, 1-[5-(4,6-Dimethyl-pyridin-2-yl)-pyrimidin-2-yl]-N-(2-hydroxy-ethyl)-N-methyl-spiro[1,2-dihydro-indole-3,1′-cyclopropane]-6-carboxylic acid amide]
< 0.1 µM	CN(C)c1ccnc(-c2cnc(N3CC4(CC4)c4ccc(C(=O)N5CCNC(=O)C5)cc43)nc2)c1 [Compound 255]
